Broadly, the IC50 is the concentration needed to halve the response being measured.

For this assay, the target named is human Cat S (Homo sapiens (Human), UniProt P25774). Briefly: Cathepsin enzyme inhibition assay (fluorogenic peptide substrate Z-Val-Val-Arg-AMC). The class given is biochemical. The note with it: enzyme 1 nM, substrate 20 μM, pH 6.5. On the procedure: Cathepsin Enzyme Inhibition Assay
Sequence of human Cat S (P25774 115-331): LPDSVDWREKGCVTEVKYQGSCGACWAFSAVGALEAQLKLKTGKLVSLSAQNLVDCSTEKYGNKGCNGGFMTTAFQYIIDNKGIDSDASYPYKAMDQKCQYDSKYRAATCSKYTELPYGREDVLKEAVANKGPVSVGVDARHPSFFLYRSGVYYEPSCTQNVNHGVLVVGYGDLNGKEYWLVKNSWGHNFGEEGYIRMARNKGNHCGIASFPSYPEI
Enzyme activity is measured by observing the increase in fluorescence intensity caused by cleavage of a peptide substrate containing a fluorophore whose emission is quenched in the intact peptide.
Assay buffer: 100 mM potassium phosphate pH 6.5, EDTA-Na 5 mM, Triton X-100 0.001%, DTT 5 mM.
Enzymes (all at 1 nM): human and mouse Cathepsin S, Cat K, Cat B, Cat L.
Substrate (20 μM): Z-Val-Val-Arg-AMC, except for Cat K which uses Z-Leu-Arg-AMC (both from Bachem).
AMC=7-Amino-4-Methyl-Coumarin.
Excitation 360 nm, Emission 465 nm.
Enzyme is added to the substance dilutions in 96-well microtitre plates and the reaction is started with substrate. […] IC50 are calculated by standard methods.
Inhibition of human Cat S, mouse Cat S, human Cat K, human Cat B, human Cat L and mouse Cat L have been measured separately.
In turn, `Cc1cc(-c2cc(C(F)(F)F)nn2C)ccc1S(=O)(=O)[C@@H]1C[C@@H](C(=O)NC2(C#N)CC2)N(C(=O)C2(C(F)(F)F)CC2)C1` [Example 32, (2S,4R)—N-(1-cyanocyclopropyl)-4-(2-methyl-4-(1-methyl-3-(trifluoromethyl)-1H-pyrazol-5-yl)phenylsulfonyl)-1-(1-(trifluoromethyl)cyclopropanecarbonyl) pyrrolidine-2-carboxamide] came in with an IC50 of 0.955 nM.

`Cc1nc(C)n(-c2ccc(S(=O)(=O)[C@@H]3C[C@@H](C(=O)NC4(C#N)CC4)N(C(=O)C4(C(F)(F)F)CC4)C3)cc2)n1` [Example 33, (2S,4R)—N-(1-cyanocyclopropyl)-4-(4-(3,5-dimethyl-1H-1,2,4-triazol-1-yl)phenylsulfonyl)-1-(1-(trifluoromethyl)cyclopropanecarbonyl)pyrrolidine-2-carboxamide] registered an IC50 of 1.57 nM.

Turning to `N#CC1(NC(=O)[C@@H]2C[C@@H](S(=O)(=O)c3ccc(-n4ccnn4)cc3)CN2C(=O)C2(C(F)(F)F)CC2)CC1` [Example 34, (2S,4R)-4-(4-(1H-1,2,3-triazol-1-yl)phenylsulfonyl)-N-(1-cyanocyclopropyl)-1-(1-(trifluoromethyl)cyclopropanecarbonyl)pyrrolidine-2-carboxamide], half-maximal inhibition (IC50) required 1.06 nM.

`N#CC1(NC(=O)[C@@H]2C[C@@H](S(=O)(=O)c3ccc(-n4ccc(C(F)(F)F)n4)cc3)CN2C(=O)C2(C(F)(F)F)CC2)CC1` [Example 35, (2S,4R)—N-(1-cyanocyclopropyl)-4-(4-(3-(trifluoromethyl)-1H-pyrazol-1-yl)phenylsulfonyl)-1-(1-(trifluoromethyl)cyclopropanecarbonyl)pyrrolidine-2-carboxamide] returned an IC50 of 1.02 nM.

In the case of `Cc1cc(C(F)(F)F)nn1-c1ccc(S(=O)(=O)[C@@H]2C[C@@H](C(=O)NC3(C#N)CC3)N(C(=O)C3(C(F)(F)F)CC3)C2)cc1` [Example 36, (2S,4R)—N-(1-cyanocyclopropyl)-4-(4-(5-methyl-3-(trifluoromethyl)-1H-pyrazol-1-yl)phenylsulfonyl)-1-(1-(trifluoromethyl)cyclopropanecarbonyl)pyrrolidine-2-carboxamide], the IC50 is 2.6 nM.

The compound `N#CC1(NC(=O)[C@@H]2C[C@@H](S(=O)(=O)c3ccc(-c4ccccc4C=O)cc3)CN2C(=O)C2(C(F)(F)F)CC2)CC1` [Example 37, (2S,4R)—N-(1-cyanocyclopropyl)-4-(2′-formylbiphenyl-4-ylsulfonyl)-1-(1-(trifluoromethyl)cyclopropanecarbonyl)pyrrolidine-2-carboxamide] registered an IC50 of 1.89 nM.

Take `CCOc1ccccc1-c1ccc(S(=O)(=O)[C@@H]2C[C@@H](C(=O)NC3(C#N)CC3)N(C(=O)C3(C(F)(F)F)CC3)C2)cc1` [Example 38, (2S,4R)—N-(1-cyanocyclopropyl)-4-(2′-ethoxybiphenyl-4-ylsulfonyl)-1-(1-(trifluoromethyl)cyclopropanecarbonyl)pyrrolidine-2-carboxamide]: the IC50 is 3.21 nM.

Compound `N#CC1(NC(=O)[C@@H]2C[C@@H](S(=O)(=O)c3ccc(-c4cnc(N)nc4)cc3)CN2C(=O)C2(C(F)(F)F)CC2)CC1` [Example 39, (2S,4R)-4-(4-(2-aminopyrimidin-5-yl)phenylsulfonyl)-N-(1-cyanocyclopropyl)-1-(1-(trifluoromethyl)cyclopropanecarbonyl)pyrrolidine-2-carboxamide] returned an IC50 of 0.483 nM.

On to `CCOc1ccccc1-c1ccc(S(=O)(=O)[C@@H]2C[C@@H](C(=O)NC3(C#N)CC3)N(C(=O)C3(C(F)(F)F)CC3)C2)c(C)c1` [Example 40, (2S,4R)—N-(1-cyanocyclopropyl)-4-(2′-ethoxy-3-methylbiphenyl-4-ylsulfonyl)-1-(1-(trifluoromethyl)cyclopropanecarbonyl)pyrrolidine-2-carboxamide], for which half-maximal inhibition (IC50) was put at 1.21 nM.

On to `Cc1cc(-c2ccccc2C#N)ccc1S(=O)(=O)[C@@H]1C[C@@H](C(=O)NC2(C#N)CC2)N(C(=O)C2(C(F)(F)F)CC2)C1` [Example 41, (2S,4R)-4-(2′-cyano-3-methylbiphenyl-4-ylsulfonyl)-N-(1-cyanocyclopropyl)-1-(1-(trifluoromethyl)cyclopropanecarbonyl)pyrrolidine-2-carboxamide], for which the IC50 was 0.86 nM.

As to `CCOc1cc(F)c(F)cc1-c1ccc(S(=O)(=O)[C@@H]2C[C@@H](C(=O)NC3(C#N)CC3)N(C(=O)C3(C(F)(F)F)CC3)C2)c(C)c1` [Example 42, (2S,4R)—N-(1-cyanocyclopropyl)-4-(2′-ethoxy-4′,5′-difluoro-3-methylbiphenyl-4-ylsulfonyl)-1-(1-(trifluoromethyl)cyclopropanecarbonyl)pyrrolidine-2-carboxamide], the IC50 came to 1.46 nM.

As for `N#CC1(NC(=O)[C@@H]2C[C@@H](S(=O)(=O)c3ccc(-c4ccccc4CO)cc3)CN2C(=O)C2(C(F)(F)F)CC2)CC1` [Example 43, (2S,4R)—N-(1-cyanocyclopropyl)-4-(2′-(hydroxymethyl)biphenyl-4-ylsulfonyl)-1-(1-(trifluoromethyl)cyclopropanecarbonyl)pyrrolidine-2-carboxamide], half-maximal inhibition (IC50) was put at 3.57 nM. Compared with the last compound, the IC50 is about 2.4-fold higher.

For `Cc1cc(-c2cnc(N)nc2)ccc1S(=O)(=O)[C@@H]1C[C@@H](C(=O)NC2(C#N)CC2)N(C(=O)C2(C(F)(F)F)CC2)C1` [Example 44, (2S,4R)-4-(4-(2-aminopyrimidin-5-yl)-2-methylphenylsulfonyl)-N-(1-cyanocyclopropyl)-1-(1-(trifluoromethyl)cyclopropanecarbonyl)pyrrolidine-2-carboxamide], it took 0.51 nM to reach half-maximal inhibition (IC50).

The compound `N#CC1(NC(=O)[C@@H]2C[C@@H](S(=O)(=O)c3ccc(-c4ccc5c(c4)OC(F)(F)O5)cc3C(F)(F)F)CN2C(=O)C2(C(F)(F)F)CC2)CC1` [Example 45, (2S,4R)-4-[4-(2,2-Difluoro-benzo[1,3]dioxol-5-yl)-2-trifluoromethyl-benzenesulfonyl]-1-(1-trifluoromethyl-cyclopropanecarbonyl)-pyrrolidine-2-carboxylic acid (1-cyano-cyclopropyl)-amide] showed an IC50 of 1.07 nM.

`Cc1nc(C)c(-c2ccc(S(=O)(=O)[C@@H]3C[C@@H](C(=O)NC4(C#N)CC4)N(C(=O)C4(C(F)(F)F)CC4)C3)c(C(F)(F)F)c2)s1` [Example 48, (2S,4R)-4-[4-(2,4-Dimethyl-thiazol-5-yl)-2-trifluoromethyl-benzenesulfonyl]-1-(1-trifluoromethyl-cyclopropanecarbonyl)-pyrrolidine-2-carboxylic acid (1-cyano-cyclopropyl)-amide] had an IC50 of 1.17 nM.

`Cc1nc(C)c(-c2ccc(S(=O)(=O)[C@@H]3C[C@@H](C(=O)NC4(C#N)CC4)N(C(=O)C4(C(F)(F)F)CC4)C3)cc2)s1` [Example 49, (2S,4R)—N-(1-cyanocyclopropyl)-4-(4-(2,4-dimethylthiazol-5-yl)phenylsulfonyl)-1-(1-(trifluoromethyl)cyclopropanecarbonyl)pyrrolidine-2-carboxamide] came in with an IC50 of 0.909 nM. The IC50 values of the last two compounds are within 1.5-fold of each other.

On to `Cc1ncc(-c2ccc(S(=O)(=O)[C@@H]3C[C@@H](C(=O)NC4(C#N)CC4)N(C(=O)C4(C(F)(F)F)CC4)C3)cc2)s1` [Example 50, (2S,4R)—N-(1-cyanocyclopropyl)-4-(4-(2-methylthiazol-5-yl)phenylsulfonyl)-1-(1-(trifluoromethyl)cyclopropanecarbonyl)pyrrolidine-2-carboxamide], for which inhibition was half-maximal at 0.728 nM (IC50). This IC50 and that of the compound before are within 1.5-fold of each other.

In turn, `COc1ncc(-c2ccc(S(=O)(=O)[C@@H]3C[C@@H](C(=O)NC4(C#N)CC4)N(C(=O)C4(C(F)(F)F)CC4)C3)cc2)cn1` [Example 51, (2S,4R)—N-(1-cyanocyclopropyl)-4-(4-(2-methoxypyrimidin-5-yl)phenylsulfonyl)-1-(1-(trifluoromethyl)cyclopropanecarbonyl)pyrrolidine-2-carboxamide] gave an IC50 of 0.882 nM. This IC50 and that of the compound before are within 1.5-fold of each other.

The compound `Cc1ncnn1-c1ccc(S(=O)(=O)[C@@H]2C[C@@H](C(=O)NC3(C#N)CC3)N(C(=O)C3(C(F)(F)F)CC3)C2)c(Cl)c1` [Example 52, (2S,4R)-4-(2-chloro-4-(5-methyl-1H-1,2,4-triazol-1-yl)phenylsulfonyl)-N-(1-cyanocyclopropyl)-1-(1-(trifluoromethyl)cyclopropanecarbonyl)pyrrolidine-2-carboxamide] registered an IC50 of 0.486 nM. This IC50 lies about 1.8-fold lower than the previous one.

The compound `N#CC1(NC(=O)[C@@H]2C[C@@H](S(=O)(=O)c3ccc(-n4ccnn4)cc3C(F)(F)F)CN2C(=O)C2(C(F)(F)F)CC2)CC1` [Example 54, (2S,4R)-4-(4-[1,2,3]Triazol-1-yl-2-trifluoromethyl-benzenesulfonyl)-1-(1-trifluoromethyl-cyclopropanecarbonyl)-pyrrolidine-2-carboxylic acid (1-cyano-cyclopropyl)-amide] registered a half-inhibitory concentration (IC50) of 0.382 nM.

Compound `Cc1noc(C)c1-c1ccc(S(=O)(=O)[C@@H]2C[C@@H](C(=O)NC3(C#N)CC3)N(C(=O)C3(C(F)(F)F)CC3)C2)cc1` [Example 55, (2S,4R)—N-(1-cyanocyclopropyl)-4-(4-(3,5-dimethylisoxazol-4-yl)phenylsulfonyl)-1-(1-(trifluoromethyl)cyclopropanecarbonyl)pyrrolidine-2-carboxamide] had an IC50 of 1.44 nM.

As for `N#CC1(NC(=O)[C@@H]2C[C@@H](S(=O)(=O)c3ccc(-c4cnn(C(F)F)c4)cc3C(F)(F)F)CN2C(=O)C2(C(F)(F)F)CC2)CC1` [Example 56, (2S,4R)-4-[4-(1-Difluoromethyl-1Hpyrazol-4-yl)-2-trifluoromethyl-benzenesulfonyl]-1-(1-trifluoromethyl-cyclopropanecarbonyl)-pyrrolidine-2-carboxylic acid (1-cyano-cyclopropyl)-amide], the IC50 came out at 0.526 nM.

For the origin of these results see patent publication US10689339B2, “Pyrrolidine derivatives” (Hoffmann-La Roche Inc., priority 2016, dated 2020).
